Consider 19 compounds from patent US12281122B1, “PI3K inhibitors” (Cogent Biosciences, Inc., priority 2023, dated 2025).

As a reminder, the IC50 is the concentration at which inhibition is half-maximal.

SMILES strings stand for the structures. Some results are limits rather than exact numbers.

Experiment [1] has as its system T47D (PI3Kα-H1047R) cell line. The experiment in a line: HTRF phospho-AKT(S473) cell assay in T47D cells. Type of experiment: cell-based, human. The essentials: (§1)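 pAKT(S473) in lysates read by HTRF after a 2 h, 37 °C compound exposure (12-point 1:3 series, max 0.5% DMSO). SKBR3 (wild type, top 10 μM) received 70 ng/ml PDGF-BB during the final 15 min; T47D (H1047R, top 5 μM) was unstimulated. IC50 values derived from the dose-response.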
(Time-resolved FRET reads energy transfer from a long-lived donor to a nearby acceptor.)

Experiment [2] concerns SKBR3 (PI3Kα-Wild Type) cell line. The experiment in a line: HTRF phospho-AKT(S473) cell assay in SKBR3 cells. Format: cell-based, human. The essentials: as §1
[3] abbreviates: Homo sapiens; HTRF phospho-AKT(S473), T47D (PI3Kα-H1047R) cells, 2 hours compound incubation.
The mark [4] stands for this setting: Homo sapiens, SK-BR-3; HTRF phospho-AKT(S473), SKBR3 (PI3Kα-Wild Type) cells, 2 hours compound incubation, PDGF-BB stimulated.
[5] abbreviates: Homo sapiens; T47D (PI3Kα-H1047R) cells, HTRF phospho-AKT(S473), 2 hours compound incubation.
Where [6] appears, read: Homo sapiens, SK-BR-3; SKBR3 (PI3Kα-Wild Type) cells, HTRF phospho-AKT(S473), 2 hours compound incubation, PDGF-BB stimulated.

Consider `Cc1cc([C@@H](C)Nc2ccc(Cl)nc2C(=O)NS(C)(=O)=O)c2nc(N3C[C@@H]4[C@H](C3)[C@H]4c3cc(C)on3)n(C)c(=O)c2c1` [Compound 665, 6-chloro-3-(((R)-1-(3,6-dimethyl-2-((1R,5S,6R)-6-(5-methylisoxazol-3-yl)-3-azabicyclo[3.1.0]hexan-3-yl)-4-oxo-3,4-dihydroquinazolin-8-yl)ethyl)amino)-N-(methylsulfonyl) picolinamide], for which the values for the IC50 in experiment [1] (setting [3]) and in experiment [2] (setting [4]) were below 0.25 µM and 1 to 5 µM, respectively.

Consider `Cc1cc([C@@H](C)Nc2ccc(Cl)nc2C(=O)NS(C)(=O)=O)c2nc(N3CCc4c(cnn4-c4ccccc4)C3)n(C)c(=O)c2c1` [Compound 195, (R)-6-chloro-3-((1-(3,6-dimethyl-4-oxo-2-(1-phenyl-1,4,6,7-tetrahydro-5H-pyrazolo[4,3-c]pyridin-5-yl)-3,4-dihydroquinazolin-8-yl)ethyl)amino)-N-(methylsulfonyl) picolinamide], for which the IC50 is below 0.25 µM in experiment [1] (setting [5]) and 1 to 5 µM in experiment [2] (setting [6]).

As for `Cc1cc([C@@H](C)Nc2ccc(Cl)nc2C(=O)NS(C)(=O)=O)c2nc(N3C[C@@H]4[C@H](C3)[C@H]4c3cnc(C)nc3)n(C3CC3)c(=O)c2c1` [Compound 606, 6-chloro-3-(((R)-1-(3-cyclopropyl-6-methyl-2-((1R,5S,6S)-6-(2-methylpyrimidin-5-yl)-3-azabicyclo[3.1.0]hexan-3-yl)-4-oxo-3,4-dihydroquinazolin-8-yl)ethyl)amino)-N-(methylsulfonyl) picolinamide], the figures for the IC50 in experiment [1] (setting [3]) and in experiment [2] (setting [4]) were 0.25 to 0.5 µM and at least 5 µM, respectively.

For the compound `Cc1cc([C@@H](C)Nc2ccc(Cl)nc2C(=O)NS(C)(=O)=O)c2nc(N3CCC(c4nn(C5COC5)cc4F)CC3)n(C)c(=O)c2c1` [Compound 759, (R)-6-chloro-3-((1-(2-(4-(4-fluoro-1-(oxetan-3-yl)-1H-pyrazol-3-yl)piperidin-1-yl)-3,6-dimethyl-4-oxo-3,4-dihydroquinazolin-8-yl)ethyl)amino)-N-(methylsulfonyl) picolinamide], the results for the concentration for half-maximal inhibition (IC50) in experiment [1] (setting [3]) and in experiment [2] (setting [4]) were 0.25 to 0.5 µM and 1 to 5 µM, respectively.

For the compound `COc1cc([C@H]2[C@@H]3CN(c4nc5c([C@@H](C)Nc6ccc(Cl)nc6C(=O)NS(C)(=O)=O)cc(C)cc5c(=O)n4C)C[C@@H]32)n(C)n1` [Compound 519, 6-chloro-3-(((R)-1-(2-((1R,5S,6R)-6-(3-methoxy-1-methyl-1H-pyrazol-5-yl)-3-azabicyclo[3.1.0]hexan-3-yl)-3,6-dimethyl-4-oxo-3,4-dihydroquinazolin-8-yl)ethyl)amino)-N-(methylsulfonyl) picolinamide], the half-inhibitory concentration (IC50) was below 0.25 µM in experiment [1] (setting [3]) and 1 to 5 µM in experiment [2] (setting [4]).

Turning to `Cc1cc([C@@H](C)Nc2ccc(Cl)nc2C(=O)NS(C)(=O)=O)c2nc(N3CCC4(CCc5cn(C)nc54)CC3)n(C)c(=O)c2c1` [Compound 673, (R)-6-chloro-3-((1-(3,6-dimethyl-2-(2-methyl-4,5-dihydro-2H-spiro [cyclopenta[c]pyrazole-6,4′-piperidin]-1′-yl)-4-oxo-3,4-dihydroquinazolin-8-yl)ethyl)amino)-N-(methylsulfonyl) picolinamide], the half-maximal inhibitory concentration (IC50) was 0.25 to 0.5 µM in experiment [1] (setting [3]) and at least 5 µM in experiment [2] (setting [4]).

Consider `Cc1cc([C@@H](C)Nc2ccc(Cl)nc2C(=O)NS(C)(=O)=O)c2nc(N3C[C@H]4C[C@@H](c5ccn(C)n5)[C@@H]3C4)n(C)c(=O)c2c1` [Compound 315, 6-chloro-3-(((R)-1-(3,6-dimethyl-2-((1S,4S,6R)-6-(1-methyl-1H-pyrazol-3-yl)-2-azabicyclo[2.2.1]heptan-2-yl)-4-oxo-3,4-dihydroquinazolin-8-yl)ethyl)amino)-N-(methylsulfonyl) picolinamide], for which the results for the IC50 in experiment [1] (setting [5]) and in experiment [2] (setting [6]) were below 0.25 µM and at least 5 µM, respectively.

With `Cc1cc([C@@H](C)Nc2ccc(Cl)nc2C(=O)NS(C)(=O)=O)c2nc(N3CCC(c4cn(C)nn4)CC3)n(C)c(=O)c2c1` [Compound 480, (R)-6-chloro-3-((1-(3,6-dimethyl-2-(4-(1-methyl-1H-1,2,3-triazol-4-yl)piperidin-1-yl)-4-oxo-3,4-dihydroquinazolin-8-yl)ethyl)amino)-N-(methylsulfonyl) picolinamide], the IC50 in experiment [1] (setting [3]) is below 0.25 µM; in experiment [2] (setting [4]), 1 to 5 µM.

Consider `Cc1cc([C@@H](C)Nc2ccc(Cl)nc2C(=O)NS(C)(=O)=O)c2nc(N3CC[C@H](c4ccc(C)nc4)C3)n(C)c(=O)c2c1` (relative stereo) [Compound 660, 6-chloro-3-(((R)-1-(3,6-dimethyl-2-((R*)-3-(6-methylpyridin-3-yl)pyrrolidin-1-yl)-4-oxo-3,4-dihydroquinazolin-8-yl)ethyl)amino)-N-(methylsulfonyl) picolinamide], for which the half-inhibitory concentration (IC50) in experiment [1] (setting [3]) was 0.25 to 0.5 µM; in experiment [2] (setting [4]), at least 5 µM.

For `Cc1cc([C@@H](C)Nc2ccc(Cl)nc2C(=O)NS(C)(=O)=O)c2nc(-c3cccc(Cl)c3Cl)n(C)c(=O)c2c1` [Compound 777, (R)-6-chloro-3-((1-(2-(2,3-dichlorophenyl)-3,6-dimethyl-4-oxo-3,4-dihydroquinazolin-8-yl)ethyl)amino)-N-(methylsulfonyl) picolinamide], the IC50 in experiment [1] (setting [3]) was 0.5 to 1 µM; in experiment [2] (setting [4]) it was at least 5 µM.

Turning to `Cc1cc([C@@H](C)Nc2ccc(Cl)nc2C(=O)NS(C)(=O)=O)c2nc(N3CCN(c4cc[nH]n4)CC3)n(C)c(=O)c2c1` [Compound 204, (R)-3-((1-(2-(4-(1H-pyrazol-3-yl)piperazin-1-yl)-3,6-dimethyl-4-oxo-3,4-dihydroquinazolin-8-yl)ethyl)amino)-6-chloro-N-(methylsulfonyl) picolinamide], the concentration for half-maximal inhibition (IC50) was below 0.25 µM in experiment [1] (setting [5]) and 1 to 5 µM in experiment [2] (setting [6]).

For the compound `Cc1cc([C@@H](C)Nc2ccc(Cl)nc2C(=O)NS(C)(=O)=O)c2nc(N3CCC(c4ccc(C)nn4)CC3)n(C)c(=O)c2c1` [Compound 264, (R)-6-chloro-3-((1-(3,6-dimethyl-2-(4-(6-methylpyridazin-3-yl)piperidin-1-yl)-4-oxo-3,4-dihydroquinazolin-8-yl)ethyl)amino)-N-(methylsulfonyl) picolinamide], the results for the IC50 in experiment [1] (setting [5]) and in experiment [2] (setting [6]) were below 0.25 µM and 1 to 5 µM, respectively.

Take `Cc1cc([C@@H](C)Nc2ccc(Cl)nc2C(=O)NS(C)(=O)=O)c2nc(N3C[C@@H]4[C@H](C3)[C@H]4c3nnn(C)n3)n(C)c(=O)c2c1` [Compound 496, 6-chloro-3-(((R)-1-(3,6-dimethyl-2-((1R,5S,6R)-6-(2-methyl-2H-tetrazol-5-yl)-3-azabicyclo[3.1.0]hexan-3-yl)-4-oxo-3,4-dihydroquinazolin-8-yl)ethyl)amino)-N-(methylsulfonyl) picolinamide]: the IC50 was below 0.25 µM in experiment [1] (setting [3]) and 1 to 5 µM in experiment [2] (setting [4]).

With `Cc1cc([C@@H](C)Nc2ccc(Cl)nc2C(=O)NS(C)(=O)=O)c2nc(N3Cc4cncnc4C3)n(C)c(=O)c2c1` [Compound 517, (R)-6-chloro-3-((1-(2-(5,7-dihydro-6H-pyrrolo [3,4-d]pyrimidin-6-yl)-3,6-dimethyl-4-oxo-3,4-dihydroquinazolin-8-yl)ethyl)amino)-N-(methylsulfonyl) picolinamide], the concentration for half-maximal inhibition (IC50) in experiment [1] (setting [3]) fell in the range of 0.25 to 0.5 µM; in experiment [2] (setting [4]), 1 to 5 µM.

Consider `COc1nccc(N2C[C@H]3C[C@@H]2CN3c2nc3c([C@@H](C)Nc4ccc(Cl)nc4C(=O)NS(C)(=O)=O)cc(C)cc3c(=O)n2C)n1` [Compound 582, 6-chloro-3-(((R)-1-(2-((1R,4R)-5-(2-methoxypyrimidin-4-yl)-2,5-diazabicyclo [2.2.1]heptan-2-yl)-3,6-dimethyl-4-oxo-3,4-dihydroquinazolin-8-yl)ethyl)amino)-N-(methylsulfonyl) picolinamide], for which the values for the IC50 in experiment [1] (setting [3]) and in experiment [2] (setting [4]) were 0.25 to 0.5 µM and at least 5 µM, respectively.

As for `Cc1cc([C@@H](C)Nc2ccc(Cl)nc2C(=O)NS(C)(=O)=O)c2nc(N3CCC(c4ncn(CC(F)(F)F)n4)CC3)n(C)c(=O)c2c1` [Compound 469, (R)-6-chloro-3-((1-(3,6-dimethyl-4-oxo-2-(4-(1-(2,2,2-trifluoroethyl)-1H-1,2,4-triazol-3-yl)piperidin-1-yl)-3,4-dihydroquinazolin-8-yl)ethyl)amino)-N-(methylsulfonyl) picolinamide], the IC50 in experiment [1] (setting [3]) is 0.25 to 0.5 µM; in experiment [2] (setting [4]), at least 5 µM.

In the case of `Cc1cc([C@@H](C)Nc2ccc(Cl)nc2C(=O)NS(C)(=O)=O)c2nc(N3CC4C[C@H]3CN4c3ccc(N(C)C)cc3)n(C)c(=O)c2c1` (stereo in doubt) [Compound 743, 6-chloro-3-(((R)-1-(2-((1S,4R)-5-(4-(dimethylamino)phenyl)-2,5-diazabicyclo [2.2.1]heptan-2-yl)-3,6-dimethyl-4-oxo-3,4-dihydroquinazolin-8-yl)ethyl)amino)-N-(methylsulfonyl) picolinamide], the IC50 is 1 to 5 µM in experiment [1] (setting [3]) and at least 5 µM in experiment [2] (setting [4]).

As to `Cc1cc([C@@H](C)Nc2ccc(Cl)nc2C(=O)NS(C)(=O)=O)c2nc(-c3ccc(N4CC5CCC(C4)C5O)nc3)n(C)c(=O)c2c1` (stereo partly drawn) [Compound 305, 6-chloro-3-(((1R)-1-(2-(6-(8-hydroxy-3-azabicyclo[3.2.1]octan-3-yl)pyridin-3-yl)-3,6-dimethyl-4-oxo-3,4-dihydroquinazolin-8-yl)ethyl)amino)-N-(methylsulfonyl) picolinamide], the IC50 was below 0.25 µM in experiment [1] (setting [5]) and at least 5 µM in experiment [2] (setting [6]).

In the case of `Cc1cc([C@@H](C)Nc2ccc(Cl)nc2C(=O)NS(C)(=O)=O)c2nc(N3CCC(c4ccnn4C(F)(F)F)CC3)n(C)c(=O)c2c1` [Compound 446, (R)-6-chloro-3-((1-(3,6-dimethyl-4-oxo-2-(4-(1-(trifluoromethyl)-1H-pyrazol-5-yl)piperidin-1-yl)-3,4-dihydroquinazolin-8-yl)ethyl)amino)-N-(methylsulfonyl) picolinamide], the half-maximal inhibitory concentration (IC50) was 0.25 to 0.5 µM in experiment [1] (setting [3]) and at least 5 µM in experiment [2] (setting [4]).
